Experimental data taken from ChEMBL document CHEMBL5236575, “Drug Hunting at the Nexus of Medicinal Chemistry and Chemical Biology and the Discovery of Novel Therapeutic Modalities” (J Med Chem, 2022).

How the values were obtained:
[1] = biological target: Survival motor neuron protein (Homo sapiens) (UniProt Q16637); experiment: Modulation of human SMN2 level in NSC34 cells assessed as fold change by ELISA; type: cell-based
[2] = biological target: T1, von Hippel-Lindau disease tumor suppressor (Homo sapiens, UniProt P40337); experiment: Binding affinity to VHL E3 ligase (unknown origin) assessed as dissociation constant by isothermal titration calorimetry assay
[3] = biological target: T1, von Hippel-Lindau disease tumor suppressor; experiment: Binding affinity to VHL E3 ligase (unknown origin) by fluorescence polarization (FP) assay

Chain of Survival motor neuron protein (Homo sapiens) (Q16637 whole entry): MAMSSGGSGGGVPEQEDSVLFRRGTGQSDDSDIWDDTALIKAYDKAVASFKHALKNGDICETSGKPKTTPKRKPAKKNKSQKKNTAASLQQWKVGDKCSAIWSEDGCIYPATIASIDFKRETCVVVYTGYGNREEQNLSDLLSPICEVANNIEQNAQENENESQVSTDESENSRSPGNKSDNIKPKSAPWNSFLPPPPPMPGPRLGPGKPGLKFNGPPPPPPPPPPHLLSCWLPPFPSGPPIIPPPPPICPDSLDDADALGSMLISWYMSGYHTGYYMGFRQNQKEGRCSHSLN
T1 sequence (P40337 whole entry): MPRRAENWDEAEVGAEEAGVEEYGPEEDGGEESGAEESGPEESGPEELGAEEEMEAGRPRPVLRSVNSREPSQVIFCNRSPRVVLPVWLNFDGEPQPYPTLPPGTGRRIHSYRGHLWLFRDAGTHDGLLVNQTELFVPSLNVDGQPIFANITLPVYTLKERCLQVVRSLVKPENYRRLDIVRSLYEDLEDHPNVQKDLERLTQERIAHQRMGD

Row | SMILES | fold change (FC) ([1]; NSC-34, filed as modulator) | EC1.5 ([1]; NSC-34, filed as modulator) | also measured
1 | CC1(C)CC(Oc2ccc(-c3ccc(-n4cccn4)cc3O)nn2)CC(C)(C)N1 | 3.3 |  | 
2 | Oc1cc(-n2cccn2)ccc1-c1ccc(OC2CCNCC2(F)F)nn1 (centres undefined) | 1.2 |  | 
3 | CN(c1ccc(-c2ccc(-n3cccn3)cc2O)nn1)C1CC(C)(C)NC(C)(C)C1 | 3.1 |  | 
4 | CN(c1ccc(-c2ccc(-c3cn[nH]c3)cc2O)nn1)C1CC(C)(C)NC(C)(C)C1 | 3.1 |  | 
5 | CCc1nc(C)cn2nc(-c3cc(=O)n4cc(N5CCN(CC)CC5)ccc4n3)cc12 |  | 23 nM | 
6 | CC1(C)CC(Oc2ccc(-c3ccc(-c4cn[nH]c4)cc3O)nn2)CC(C)(C)N1 | 3.6 |  | 
7 | Cc1cn2cc(-c3cc(=O)n4cc(N5CCN(C)CC5)ccc4n3)cc(F)c2n1 |  | 15 nM | 
8 | COC(=O)c1ccc(CNC(=O)[C@@H]2C[C@@H](O)CN2C(=O)CC(C)(C)C)cc1 |  |  | Kd [2]: 45.5 µM; IC50 [3]: 53.2 µM
9 | C=C(CCNC(=O)CCCC)N1CCN(c2ccc3nc(-c4cc(F)c5nc(C)cn5c4)cc(=O)n3c2)CC1 |  | 43 nM | 
10 | CCCCC(=O)NCCC(=O)N1CCN(c2ccc3nc(-c4cc(F)c5nc(C)cn5c4)cc(=O)n3c2)CC1 |  |  | EC1.5 ([1]; NSC-34): > 1000 nM
11 | Cc1cn2nc(-c3cc(=O)n4cc(N5CCNC6(CC6)C5)ccc4n3)cc(C)c2n1 |  | 4 nM | 
12 | CCN1CCN(c2ccc3nc(-c4cc5c(C)nc(C)cn5n4)cc(=O)n3c2)CC1 |  | 30 nM | 
13 | Cc1cn2nc(-c3cc(=O)n4cc(N5CCN(C)CC5)ccc4n3)cc2c(C)n1 |  | 170 nM | 
